# Results as given in patent US11779561B2, “Compounds and pharmaceutical uses thereof” (priority 2020, dated 2023).
# Several values for one entry are separate records, joined by “and”; a condition that tells them apart may be missing. Equal entries are not always repeated.
# Assays:
# 2019-nCoV 3CLPro = 2019-nCoV 3CLPro (Severe acute respiratory syndrome coronavirus 2, UniProt P0DTD1); experiment: 2019-nCoV 3CLPro proteolytic activity, fluorogenic substrate, samples at 3 μM (Example 4); assay type: biochemical; settings: estimated from single concentration 3 μM; read-out: approximately half maximal inhibition (IC50) at the concentration
# SARS-CoV-2 = SARS-CoV-2 virucidal assay in Vero E6 cells (qPCR of viral genome); assay type: cell-based; settings: Vero E6, MOI=0.01, 24 h
# 3CLPro = 3CLPro (Severe acute respiratory syndrome coronavirus 2, UniProt P0DTD1); settings: cited from earlier work; for IC50: read-out: IC50 (inhibition of 3CLPro), summary of Table 3
# SARS-CoV-2 3CLPro = SARS-CoV-2 3CLPro (Severe acute respiratory syndrome coronavirus 2, UniProt P0DTD1); experiment: Native-PAGE binding with SARS-CoV-2 viral 3CLPro (Example 8); settings: 62.5-1000 μM samples mixed with 40 μM 3CLPro, 4° C., 3 hours
SMILES,IC50 (3CLPro),binding to SARS-CoV-2 3CLPro by native-PAGE (mobility shift) (SARS-CoV-2 3CLPro),also measured
O=C(OC[C@H]1O[C@H](OC(=O)c2cc(O)c(O)c(O)c2)[C@H](OC(=O)c2cc(O)c(O)c(O)c2)[C@@H](OC(=O)c2cc(O)c(O)c(O)c2)[C@@H]1OC(=O)c1cc(O)c(O)c(O)c1)c1cc(O)c(O)c(O)c1 [Sample 1],–,–,potency estimated from few doses (2019-nCoV 3CLPro): ~3 µM
CCC(CC)COC(=O)[C@H](C)N[P@](=O)(OC[C@H]1O[C@@](C#N)(c2ccc3c(N)ncnn23)[C@H](O)[C@@H]1O)Oc1ccccc1 [Remdesivir],–,–,EC99 (SARS-CoV-2; cell layer): 15 µM and 15.000 µM; EC99 (SARS-CoV-2; supernatant): 15 µM and 15.000 µM
Cc1cccc(C)c1OCC(=O)N[C@@H](Cc1ccccc1)[C@@H](O)C[C@H](Cc1ccccc1)NC(=O)[C@H](C(C)C)N1CCCNC1=O [Lopinavir],> 100 µM,–,"IC50 of the 3CLPro (result in words) (3CLPro; 20 μM, Ma et al., 2020): 20 μM, failed to inhibit"
"O=C(OC[C@H]1O[C@@H](OC(=O)c2cc(O)c(O)c(O)c2)[C@H](OC(=O)c2cc(O)c(O)c(O)c2)[C@@H](OC(=O)c2cc(O)c(O)c(O)c2)[C@@H]1OC(=O)c1cc(O)c(O)c(O)c1)c1cc(O)c(O)c(O)c1 [Sample 2, (2S,3R,4S,5R,6R)-3,4,5-tris(3,4,5-trihydroxybenzoyloxy)-6-((3,4,5-trihydroxybenzoyloxy)methyl)oxan-2-yl 3,4,5-trihydroxybenzoate]",–,–,potency estimated from few doses (2019-nCoV 3CLPro): ~3 µM
"O=C(OC[C@H]1O[C@@H](OC(=O)c2cc(O)c(O)c(OC(=O)c3cc(O)c(O)c(OC(=O)c4cc(O)c(O)c(O)c4)c3)c2)[C@H](OC(=O)c2cc(O)c(O)c(OC(=O)c3cc(O)c(O)c(OC(=O)c4cc(O)c(O)c(O)c4)c3)c2)[C@@H](OC(=O)c2cc(O)c(O)c(OC(=O)c3cc(O)c(O)c(OC(=O)c4cc(O)c(O)c(O)c4)c3)c2)[C@@H]1OC(=O)c1cc(O)c(O)c(OC(=O)c2cc(O)c(O)c(OC(=O)c3cc(O)c(O)c(O)c3)c2)c1)c1cc(O)c(O)c(OC(=O)c2cc(O)c(O)c(OC(=O)c3cc(O)c(O)c(O)c3)c2)c1 [Sample 6, (2S,3R,4S,5R,6R)-6-(((3-((3,4-dihydroxy-5-((3,4,5-trihydroxybenzoyl)oxy)benzoyl)oxy)-4,5-dihydroxybenzoyl)oxy)methyl)tetrahydro-2H-pyran-2,3,4,5-tetrayl tetrakis(3-((3,4-dihydroxy-5-((3,4,5-trihydroxybenzoyl)oxy)benzoyl)oxy)-4,5-dihydroxybenzoate)]",–,significant binding,–
"O=C(OC[C@H]1O[C@@H](OC(=O)c2cc(O)c(O)c(OC(=O)c3cc(O)c(O)c(O)c3)c2)[C@H](OC(=O)c2cc(O)c(O)c(OC(=O)c3cc(O)c(O)c(O)c3)c2)[C@@H](OC(=O)c2cc(O)c(O)c(OC(=O)c3cc(O)c(O)c(O)c3)c2)[C@@H]1OC(=O)c1cc(O)c(O)c(OC(=O)c2cc(O)c(O)c(O)c2)c1)c1cc(O)c(O)c(OC(=O)c2cc(O)c(O)c(O)c2)c1 [Sample 4, (2S,3R,4S,5R,6R)-3,4,5-tris(3,4-dihydroxy-5-(3,4,5-trihydroxybenzoyloxy)benzoyloxy)-6-((3,4-dihydroxy-5-(3,4,5-trihydroxybenzoyloxy)benzoyloxy)methyl)oxan-2-yl 3,4-dihydroxy-5-(3,4,5-trihydroxybenzoyloxy)benzoate]",–,significant binding,–
Cc1c(O)cccc1C(=O)N[C@@H](CSc1ccccc1)[C@H](O)CN1C[C@H]2CCCC[C@H]2C[C@H]1C(=O)NC(C)(C)C [Nelfinavir],> 100 µM,–,–
CCC[C@@]1(CCc2ccccc2)CC(O)=C([C@H](CC)c2cccc(NS(=O)(=O)c3ccc(C(F)(F)F)cn3)c2)C(=O)O1 [Tipranavir],> 100 µM,–,–
"O=C(O)c1cc(O)c(O)c(O)c1 [GA, gallic acid]",–,no significant binding,–
CC(C)(C)NC(=O)[C@@H]1C[C@@H]2CCCC[C@@H]2CN1C[C@@H](O)[C@H](Cc1ccccc1)NC(=O)[C@H](CC(N)=O)NC(=O)c1ccc2ccccc2n1 [Saquinavir],> 100 µM,–,–
